{"source": "patent US20090181898A1", "about": "“ABUSE-RESISTANT A[…]” (SHIRE LLC, priority 2002, published 2009)", "system": "anesthetized dog", "assay": "Cardiovascular effects following intravenous injection in the anesthetized dog"}
{"smiles": "CC(Cc1ccccc1)NC(=O)C(N)CCCCN", "note": "[L-lysine-d-amphetamine, 2,6-diaminohexanoic acid-(1-methyl-2-phenylethyl)-amide]", "values": [{"measurement": "LVP left ventricular pressure", "setting": "iv 1.0 mg/kg, Time 0", "value": 108, "unit": "mmHg"}, {"measurement": "MAP % Change", "setting": "iv 1.0 mg/kg, Time 0", "value": 0, "unit": "%"}, {"measurement": "MAP mean arterial pressure", "setting": "iv 1.0 mg/kg, Time 0", "value": 74, "unit": "mmHg"}, {"measurement": "SAP % Change", "setting": "iv 1.0 mg/kg, Time 0", "value": 0, "unit": "%"}, {"measurement": "SAP systolic arterial pressure", "setting": "iv 1.0 mg/kg, Time 0", "value": 105, "unit": "mmHg"}, {"measurement": "DAP % Change", "setting": "iv 1.0 mg/kg, Time 5", "value": 15, "unit": "%"}, {"measurement": "DAP diastolic arterial pressure", "setting": "iv 1.0 mg/kg, Time 5", "value": 63, "unit": "mmHg"}, {"measurement": "LVP % Change", "setting": "iv 1.0 mg/kg, Time 5", "value": 11, "unit": "%"}, {"measurement": "LVP left ventricular pressure", "setting": "iv 1.0 mg/kg, Time 5", "value": 120, "unit": "mmHg"}, {"measurement": "MAP % Change", "setting": "iv 1.0 mg/kg, Time 5", "value": 15, "unit": "%"}, {"measurement": "MAP mean arterial pressure", "setting": "iv 1.0 mg/kg, Time 5", "value": 85, "unit": "mmHg"}, {"measurement": "SAP % Change", "setting": "iv 1.0 mg/kg, Time 5", "value": 15, "unit": "%"}, {"measurement": "SAP systolic arterial pressure", "setting": "iv 1.0 mg/kg, Time 5", "value": 121, "unit": "mmHg"}, {"measurement": "DAP % Change", "setting": "iv 1.0 mg/kg, Time 15", "value": 33, "unit": "%"}, {"measurement": "DAP diastolic arterial pressure", "setting": "iv 1.0 mg/kg, Time 15", "value": 73, "unit": "mmHg"}, {"measurement": "LVP % Change", "setting": "iv 1.0 mg/kg, Time 15", "value": 29, "unit": "%"}, {"measurement": "LVP left ventricular pressure", "setting": "iv 1.0 mg/kg, Time 15", "value": 140, "unit": "mmHg"}, {"measurement": "MAP % Change", "setting": "iv 1.0 mg/kg, Time 15", "value": 35, "unit": "%"}, {"measurement": "MAP mean arterial pressure", "setting": "iv 1.0 mg/kg, Time 15", "value": 100, "unit": "mmHg"}, {"measurement": "SAP % Change", "setting": "iv 1.0 mg/kg, Time 15", "value": 35, "unit": "%"}, {"measurement": "SAP systolic arterial pressure", "setting": "iv 1.0 mg/kg, Time 15", "value": 142, "unit": "mmHg"}, {"measurement": "DAP % Change", "setting": "iv 1.0 mg/kg, Time 25", "value": 75, "unit": "%"}, {"measurement": "DAP diastolic arterial pressure", "setting": "iv 1.0 mg/kg, Time 25", "value": 97, "unit": "mmHg"}, {"measurement": "LVP % Change", "setting": "iv 1.0 mg/kg, Time 25", "value": 50, "unit": "%"}, {"measurement": "LVP left ventricular pressure", "setting": "iv 1.0 mg/kg, Time 25", "value": 162, "unit": "mmHg"}, {"measurement": "MAP % Change", "setting": "iv 1.0 mg/kg, Time 25", "value": 68, "unit": "%"}, {"measurement": "MAP mean arterial pressure", "setting": "iv 1.0 mg/kg, Time 25", "value": 124, "unit": "mmHg"}, {"measurement": "SAP % Change", "setting": "iv 1.0 mg/kg, Time 25", "value": 55, "unit": "%"}, {"measurement": "SAP systolic arterial pressure", "setting": "iv 1.0 mg/kg, Time 25", "value": 163, "unit": "mmHg"}, {"measurement": "DAP % Change", "setting": "iv 1.0 mg/kg, Time 30", "value": 32, "unit": "%"}, {"measurement": "DAP diastolic arterial pressure", "setting": "iv 1.0 mg/kg, Time 30", "value": 73, "unit": "mmHg"}, {"measurement": "LVP % Change", "setting": "iv 1.0 mg/kg, Time 30", "value": 33, "unit": "%"}, {"measurement": "LVP left ventricular pressure", "setting": "iv 1.0 mg/kg, Time 30", "value": 144, "unit": "mmHg"}, {"measurement": "MAP % Change", "setting": "iv 1.0 mg/kg, Time 30", "value": 32, "unit": "%"}, {"measurement": "MAP mean arterial pressure", "setting": "iv 1.0 mg/kg, Time 30", "value": 98, "unit": "mmHg"}, {"measurement": "SAP % Change", "setting": "iv 1.0 mg/kg, Time 30", "value": 28, "unit": "%"}, {"measurement": "SAP systolic arterial pressure", "setting": "iv 1.0 mg/kg, Time 30", "value": 134, "unit": "mmHg"}, {"measurement": "DAP % Change", "setting": "iv 5.0 mg/kg, Time 0", "value": 0, "unit": "%"}, {"measurement": "DAP diastolic arterial pressure", "setting": "iv 5.0 mg/kg, Time 0", "value": 71, "unit": "mmHg"}, {"measurement": "LVP % Change", "setting": "iv 5.0 mg/kg, Time 0", "value": 0, "unit": "%"}, {"measurement": "LVP left ventricular pressure", "setting": "iv 5.0 mg/kg, Time 0", "value": 144, "unit": "mmHg"}, {"measurement": "MAP % Change", "setting": "iv 5.0 mg/kg, Time 0", "value": 0, "unit": "%"}, {"measurement": "MAP mean arterial pressure", "setting": "iv 5.0 mg/kg, Time 0", "value": 95, "unit": "mmHg"}, {"measurement": "SAP % Change", "setting": "iv 5.0 mg/kg, Time 0", "value": 0, "unit": "%"}, {"measurement": "SAP systolic arterial pressure", "setting": "iv 5.0 mg/kg, Time 0", "value": 132, "unit": "mmHg"}, {"measurement": "DAP % Change", "setting": "iv 5.0 mg/kg, Time 5", "value": 0, "unit": "%"}, {"measurement": "DAP diastolic arterial pressure", "setting": "iv 5.0 mg/kg, Time 5", "value": 71, "unit": "mmHg"}, {"measurement": "LVP % Change", "setting": "iv 5.0 mg/kg, Time 5", "value": 5, "unit": "%"}, {"measurement": "LVP left ventricular pressure", "setting": "iv 5.0 mg/kg, Time 5", "value": 151, "unit": "mmHg"}, {"measurement": "MAP % Change", "setting": "iv 5.0 mg/kg, Time 5", "value": 4, "unit": "%"}, {"measurement": "MAP mean arterial pressure", "setting": "iv 5.0 mg/kg, Time 5", "value": 99, "unit": "mmHg"}, {"measurement": "SAP % Change", "setting": "iv 5.0 mg/kg, Time 5", "value": 7, "unit": "%"}, {"measurement": "SAP systolic arterial pressure", "setting": "iv 5.0 mg/kg, Time 5", "value": 142, "unit": "mmHg"}, {"measurement": "DAP % Change", "setting": "iv 5.0 mg/kg, Time 15", "value": 39, "unit": "%"}, {"measurement": "DAP diastolic arterial pressure", "setting": "iv 5.0 mg/kg, Time 15", "value": 98, "unit": "mmHg"}, {"measurement": "LVP % Change", "setting": "iv 5.0 mg/kg, Time 15", "value": 28, "unit": "%"}, {"measurement": "LVP left ventricular pressure", "setting": "iv 5.0 mg/kg, Time 15", "value": 184, "unit": "mmHg"}, {"measurement": "MAP % Change", "setting": "iv 5.0 mg/kg, Time 15", "value": 37, "unit": "%"}, {"measurement": "MAP mean arterial pressure", "setting": "iv 5.0 mg/kg, Time 15", "value": 130, "unit": "mmHg"}, {"measurement": "SAP % Change", "setting": "iv 5.0 mg/kg, Time 15", "value": 33, "unit": "%"}, {"measurement": "SAP systolic arterial pressure", "setting": "iv 5.0 mg/kg, Time 15", "value": 176, "unit": "mmHg"}, {"measurement": "DAP % Change", "setting": "iv 5.0 mg/kg, Time 25", "value": "−3", "unit": "%"}, {"measurement": "DAP diastolic arterial pressure", "setting": "iv 5.0 mg/kg, Time 25", "value": 69, "unit": "mmHg"}, {"measurement": "LVP % Change", "setting": "iv 5.0 mg/kg, Time 25", "value": 11, "unit": "%"}, {"measurement": "LVP left ventricular pressure", "setting": "iv 5.0 mg/kg, Time 25", "value": 160, "unit": "mmHg"}, {"measurement": "MAP % Change", "setting": "iv 5.0 mg/kg, Time 25", "value": 1, "unit": "%"}, {"measurement": "MAP mean arterial pressure", "setting": "iv 5.0 mg/kg, Time 25", "value": 96, "unit": "mmHg"}, {"measurement": "SAP % Change", "setting": "iv 5.0 mg/kg, Time 25", "value": "−5", "unit": "%"}, {"measurement": "SAP systolic arterial pressure", "setting": "iv 5.0 mg/kg, Time 25", "value": 126, "unit": "mmHg"}, {"measurement": "DAP % Change", "setting": "iv 5.0 mg/kg, Time 30", "value": "−1", "unit": "%"}, {"measurement": "DAP diastolic arterial pressure", "setting": "iv 5.0 mg/kg, Time 30", "value": 70, "unit": "mmHg"}, {"measurement": "LVP % Change", "setting": "iv 5.0 mg/kg, Time 30", "value": 13, "unit": "%"}, {"measurement": "LVP left ventricular pressure", "setting": "iv 5.0 mg/kg, Time 30", "value": 163, "unit": "mmHg"}, {"measurement": "MAP % Change", "setting": "iv 5.0 mg/kg, Time 30", "value": 4, "unit": "%"}, {"measurement": "MAP mean arterial pressure", "setting": "iv 5.0 mg/kg, Time 30", "value": 99, "unit": "mmHg"}, {"measurement": "SAP % Change", "setting": "iv 5.0 mg/kg, Time 30", "value": 0, "unit": "%"}, {"measurement": "SAP systolic arterial pressure", "setting": "iv 5.0 mg/kg, Time 30", "value": 132, "unit": "mmHg"}]}
